Results taken from US7320980B2, “Substituted pyrido(1,2-a)pyrimidines and their use as NOS inhibitors” (Gruenenthal GmbH, priority 2003, dated 2008).
Where a name gives a salt, the structure may show the parent alone.

Molecular target: T1, NO synthase (Rattus norvegicus, UniProt P29476)
T1 construct: the supernatant was then decanted off and frozen in portions at −80° C., discarding the precipitate; from tissue; host or cells: rat cerebellum, 20,000 g supernatant of homogenate
Assay: NOS / HTS-NOS assay (radioactive arginine conversion, rat cerebellum enzyme preparation)
Assay type: biochemical
Settings: rat cerebellum supernatant enzyme, [3H]-arginine substrate, 25° C.; read-out: NOS Arg IC50
From the text: This assay makes it possible to determine the percentage inhibition of NO synthase (hereinafter referred to as the enzyme) by a compound of the general formula II used according to the invention, optionally in the form of one of the pure stereoisomers thereof, in particular enantiomers or diastereomers, the racemates thereof or in the form of a mixture of stereoisomers, in particular the enantiomers or diastereomers, in any desired mixing ratio, or in each case in the form of the free base thereof or in the form of the physiologically acceptable salt thereof, in particular hydroperchlorate salt or in each case in the form of the solvate thereof, in particular hydrate (hereinafter referred to as the active ingredient), by measuring enzyme activity on exposure to the compound. The enzyme is here mixed under suitable conditions together with radioactively labelled arginine and the particular active ingredient. After termination of the NO formation reaction at a predetermined time, the quantity of unconverted arginine is directly or indirectly determined.
This assay may be carried out at follows: • (a) Incubation of the enzyme with labelled arginine as the substrate in a reaction vessel, • (b) Separation of the labelled arginine from the labelled citrulline optionally arising as a product of the enzymatic reaction at a time at which the concentration of citrulline is rising, • (c) Measurement of the quantity of arginine separated in each case.
Separation is performed by means of a filter plate membrane.
Radioactive arginine is used as the substrate in this HTS-NOS assay. Depending on the type of microtitre plate (MTP), the assay volume may be selected in the range between 25 μl and 250 μl. Depending on the enzyme source used, cofactors and coenzymes are added. The batches are incubated in this microtitre plate (assay MTP) according to step (a) at room temperature and, depending on the enzyme activity used (units), lasts between 5 and 60 minutes. On completion of incubation (step (a)), the plate is placed in a cell harvester, which is equipped with an MTP which has a cation exchange membrane as a filter bottom (filter MTP). All the batches from the assay MTP are transferred into this filter MTP and suction filtered through a cation exchange filter plate, a paper filter loaded with phosphate groups. The filter MTP is then washed with buffer or water. This procedure binds the remaining substrate arginine onto the cation exchanger, while the enzymatically formed radioactive citrulline is quantitatively eluted. Once the filter MTP has been dried and scintillation liquid (Ready Protein, Beckmann Coulter GmbH, Krefeld, Germany) added, the bound arginine can be counted in the scintillation counter (Packard TRI-CARB Liquid Scintillation Analyzer 2000 CA, Packard Instrument, Meriden, Conn. 06450, USA). Low radioactivity indicates an uninhibited enzyme reaction. An inhibited enzyme reaction means that the radioactive arginine has not been converted. It may be concluded from this that there is then a high level of radioactivity on the filter.
The NOS and HTS-NOS assays were performed as described above.
Rat cerebella were used as the starting tissue. The animals were stunned and killed, the brain tissue, the cerebellum, was dissected out, 1 ml of enzyme preparation buffer (4° C.) was added per cerebellum, and the tissue was disrupted for 1 min at 6000 rpm in a Polytron homogeniser. The mixture was then centrifuged at 4° C. for 15 min at 20,000 g, and the supernatant was then decanted off and frozen in portions at −80° C., discarding the precipitate. The frozen supernatant was subsequently thawed for the assay and pipetted out onto a microtitre plate.
96-well MTPs with a well capacity of <250 μl were used.
Once pipetting was complete, a lid was placed on this MTP (assay MTP) and incubation performed at 25° C. (room temperature [RT]) for 5-60 min, depending on the quantity and activity of the enzyme used (see in this connection Table 1). […]

Which IC50 does the source give for CC1=CC2=NCC(C(=O)c3ccc4ccccc4c3)CN2C=C1 (stereo not drawn) [Example 1, 3-(2′-Naphthoyl)-3,4-dihydro-2H-8-methylpyrido[1,2-a]pyrimidinium perchlorate] here?
The IC50 was 1.4 µM.

Which IC50 does the source give for CC1=CC2=NCC(C(=O)c3ccc4ccccc4c3)CN2C(C)=C1 (stereo not drawn) [Example 2, 3-(2′-Naphthoyl)-3,4-dihydro-2H-6,8-dimethylpyrido[1,2-a]pyrimidinium perchlorate] here?
Its IC50 is 6.7 µM.

Which IC50 does the source give for CC1=CC2=NCC(C(=O)c3ccc(Br)cc3)CN2C=C1 (stereo not drawn) [Example 3, 3-(4′-Bromobenzoyl)-3,4-dihydro-2H-8-methylpyrido[1,2-a]pyrimidinium perchlorate] here?
The IC50 was 14 µM.

For CC1=CC2=NCC(C(=O)c3ccc(F)cc3)CN2C=C1 (stereo not drawn) [Example 4, 3-(4′-Fluorobenzoyl)-3,4-dihydro-2H-8-methylpyrido[1,2-a]pyrimidinium perchlorate], which IC50 is on record?
Its IC50 is 8.5 µM.

For CC1=CC2=NCC(C(=O)c3ccccc3)CN2C=C1 (stereo not drawn) [Example 5, 3-Benzoyl-3,4-dihydro-2H-8-methylpyrido[1,2-a]pyrimidinium perchlorate], which IC50 is on record?
Its IC50 is 9.1 µM.

With CC1=CC2=NCC(C(=O)c3ccccc3)CN2C(C)=C1 (stereo not drawn) [Example 6, 3-Benzoyl-3,4-dihydro-2H-6,8-dimethylpyrido[1,2-a]pyrimidinium perchlorate] as the compound, how does the IC50 read?
The IC50 was 8.4 µM.

For CC1=CC2=NCC(C(=O)c3ccc(Cl)cc3)CN2C=C1 (stereo not drawn) [Example 7, 3-(4′-Chlorobenzoyl)-3,4-dihydro-2H-8-methylpyrido[1,2-a]pyrimidinium perchlorate], which IC50 is on record?
The IC50 was 6.4 µM.

For CC1=CC2=NCC(C(=O)c3ccc(-c4ccccc4)cc3)CN2C=C1 (stereo not drawn) [Example 8, 3-(4′-Biphenylcarbonyl)-3,4-dihydro-2H-8-methylpyrido[1,2-a]pyrimidinium perchlorate], which IC50 is on record?
Its IC50 is 13 µM.

Which IC50 does the source give for CC1=CC=CC2=NCC(C(=O)c3ccc(-c4ccccc4)cc3)CN12 (stereo not drawn) [Example 9, 3-(4′-Biphenylcarbonyl)-3,4-dihydro-2H-6-methylpyrido[1,2-a]pyrimidinium perchlorate] here?
Its IC50 is 7.6 µM.

Tested on: formaldehyde-induced nociception
Assay: Formaldehyde test (rat), second phase
Assay type: in vivo
Settings: iv, male Sprague-Dawley rats, second (late) phase of formaldehyde test, pain rate change relative to control
Method: The investigations for determining the antinociceptive action of the compounds used according to the invention of the general formula II were carried out by the formaldehyde test on male rats (Sprague-Dawley, 150-170 g, Charles River).
In the formaldehyde test, a distinction is drawn between the first (early) phase (0-15 min after formaldehyde injection) and the second (later) phase (15-60 min after formaldehyde injection), as described in D. Dubuisson, S. G. Dennis, Pain 4, 161-174 (1977). […]
A nociceptive reaction was induced in the freely mobile test animals by a single, subcutaneous formaldehyde injection (50 μl, 5 wt. %) into the dorsal side of the rear hind paw, the reaction being classed according to one of the following behavioural parameters: lifting and holding up the affected paw (score 1), shaking or twitching (score 2), licking and biting (score 3). The differential behaviour induced by the formaldehyde injection was recorded by observing the rats in the late phase of the formaldehyde test and assigned a variable weighting in the evaluation. Normal behaviour, in which the rat places an even load on all four paws, was recorded as a score of 0. […] The nociceptive behaviour was calculated as a “pain rate” (PR). […]
The analgesic action of the compounds of the general formula II used according to the invention was determined as described above.

For CC1=CC2=NCC(C(=O)c3ccc4ccccc4c3)CN2C=C1 (stereo not drawn) [Example 1, 3-(2′-Naphthoyl)-3,4-dihydro-2H-8-methylpyrido[1,2-a]pyrimidinium perchlorate], which ED50 is on record?
The ED50 was 7.27 mg/kg.

Tested on: not given
Assay: not given
Settings: not given

For CC1=CC2=NCC(C(=O)c3ccc(Br)cc3)CN2C=C1 (stereo not drawn) (as salt: perchlorate) [Example 3, 3-(4′-Bromobenzoyl)-3,4-dihydro-2H-8-methylpyrido[1,2-a]pyrimidinium perchlorate], which melting point is on record?
Its melting point is 158 to 161 °C.

For CC1=CC2=NCC(C(=O)c3ccccc3)CN2C=C1 (stereo not drawn) (as salt: perchlorate) [Example 5, 3-Benzoyl-3,4-dihydro-2H-8-methylpyrido[1,2-a]pyrimidinium perchlorate], which melting point is on record?
The melting point was over 290 °C.

Which melting point does the source give for CC1=CC2=NCC(C(=O)c3ccccc3)CN2C(C)=C1 (stereo not drawn) (as salt: perchlorate) [Example 6, 3-Benzoyl-3,4-dihydro-2H-6,8-dimethylpyrido[1,2-a]pyrimidinium perchlorate] here?
Its melting point is 78 °C.

Which melting point does the source give for CC1=CC2=NCC(C(=O)c3ccc(Cl)cc3)CN2C=C1 (stereo not drawn) (as salt: perchlorate) [Example 7, 3-(4′-Chlorobenzoyl)-3,4-dihydro-2H-8-methylpyrido[1,2-a]pyrimidinium perchlorate] here?
Its melting point is 123 to 125 °C.

Which melting point does the source give for CC1=CC2=NCC(C(=O)c3ccc(-c4ccccc4)cc3)CN2C=C1 (stereo not drawn) (as salt: perchlorate) [Example 8, 3-(4′-Biphenylcarbonyl)-3,4-dihydro-2H-8-methylpyrido[1,2-a]pyrimidinium perchlorate] here?
The melting point was 111 °C.
